Measurements as given in patent US5270165A, “Method of diagnosis of amyloidoses” (The Reagents of the University of California, priority 1991, dated 1993).

Test system: platelets
Assay: Secretion of PN-2/βAPP and granule markers from platelets after activation by agonists
Assay type: cell-based
Details: for PN-2/βAPP percent secreted / LDH loss (percent), marker of platelet lysis / ADP/ATP percent secreted / LA-PF4 percent secreted: collagen 20 μg/ml or thrombin 1 U/ml, 10 minutes; for fraction of total platelet PN-2/βAPP secreted on activation: freshly washed platelets
Description: Secretion of PN-2/βAPP from platelets after activation by the agonists collagen or thrombin was studied. Briefly, fresh platelets washed by albumin density gradient centrifugation and gel filtration were incubated for 30 minutes at 37° C. in the absence or presence of the combined metabolic inhibitors antimycin A (15 μg/ml), 2-deoxy-D-glucose (30 mM), and D-gluconic acid δ-lactone (10 mM). The platelets were then placed into a cuvette 37° C. water bath with stirring at 1,200 rpm, and collagen (20 μg/ml or .varies.-thrombin (1 U/ml) was added. After 10 minutes, the samples were centrifuged at 12,000 x g for 4 minutes and supernatants were collected. Aliquots were removed and quantitated for PN-2/βAPP by incubation with ^125 I-EGF BP and analysis of complex formation by SDS-PAGE and autoradiography as in Example 15. Autoradiograms were aligned with dried gels; ^125 I-EGF BP:PN-2/βAPP complexes were located, excised and quantitated in a […]. Aliquots were also quantitated for platelet markers as follows: total adenine nucleotide (ADP/ATP) secretion was measured by the method of Homsen et al., Anal. Biochem., 46:489 (1972); low affinity platelet factor 4 (LA-PF4) secretion was quantitated by the method of Rucinski et al., Blood, 53:47 (1979); and cytosolic lactate dehydrogenase (LDH) loss was assessed by the procedure of Wroblewski and Ladue, Proc. Soc. Exper. Biol. Med., 77:389 (1978), the disclosures of which are hereby incorporated by reference. Values represent the percent secreted. Percent secreted was determined from the ratio of releasate in agonist treated sample to the total amount present in detergent lysate; nonstimulated platelet supernatants were subtracted from both. Values expressed are the mean ±SEM of three experiments, each consisting of combined platelets from two donors.

[1] = Inhibitor-Treated Platelets (antimycin A, 2-deoxy-D-glucose, D-gluconic acid δ-lactone)
[2] = Inhibitor-Treated Platelets, mean ±SEM
[3] = Washed Platelets, 37° C., mean ±SEM of three experiments

Row | Substance | PN-2/βAPP percent secreted [1] [%] | LDH loss (percent), marker of platelet lysis (Inhibitor-Treated Platelets) [%] | ADP/ATP percent secreted [2] [%] | LA-PF4 percent secreted [2] [%] | PN-2/βAPP percent secreted [3] [%] | ADP/ATP percent secreted (Washed Platelets, mean ±SEM) [%] | LA-PF4 percent secreted (Washed Platelets, mean ±SEM) [%] | LDH loss (percent), marker of platelet lysis (Washed Platelets, mean ±SEM) [%] | fraction of total platelet PN-2/βAPP secreted on activation
1 | Collagen | 0 | 0 | 1.3 ± 1.3 | 0 | 46.3 ± 7.7 | 45 ± 16 | 52 ± 11 | 1.3 ± 1.3 | approximately one-half
2 | Thrombin | 0 |  | 0 | 0.4 ± 0.4 | 53.7 ± 7.6 | 68 ± 11 | 69 ± 6.2 | 0 | approximately one-half
